Counter-ions that a name gives are not always drawn.
Experiments:
Settings in all cases: exposure time: 72 h
E28 [1] = patient-derived glioblastoma stem cells of classical subtype; test: surviving fraction (nuclei count normalised to DMSO); higher = more cells surviving (less toxic)
E31 [2] = patient-derived glioblastoma stem cells of proneural subtype; test: as above
E13 [3] = patient-derived glioblastoma stem cells of classical subtype; test: as above
E21 [4] = patient-derived glioblastoma stem cells of mesenchymal subtype; test: as above
FT3469 [5] = normal neural stem cell line; test: as above
E57 [6] = patient-derived glioblastoma stem cells of mesenchymal subtype; test: as above
E34 [7] = patient-derived glioblastoma stem cells of proneural subtype; test: as above
E28 [8] = test: phenotypic distance (Euclidean, principal components) from DMSO controls (arbitrary units); higher = stronger morphological change
E31 [9] = test: as above
E13 [10] = test: as above
E21 [11] = test: as above
FT3469 [12] = test: as above
E57 [13] = test: as above
E34 [14] = test: as above
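Throughout, for phenotypic distance (Euclidean, principal components) from DMSO controls: cell Painting imaging in 384-well plates, CellProfiler features reduced to at least 20 principal components, Euclidean distance versus same-plate DMSO vehicle wells (0.1% v/v), median over six images per well.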
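Throughout, for surviving fraction (nuclei count normalised to DMSO): nuclei counted by high-content imaging of Hoechst-stained cells in laminin-coated 384-well plates, relative to 0.1% DMSO vehicle wells, with staurosporine as cell-death control.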

Cc1c(-c2ccc(-c3ccccc3F)cc2)nc2ccc(F)cc2c1C(=O)O [Brequinar sodium salt hydrate]
Settings	phenotypic distance	surviving fraction
E13 [3], 4.1 nM	–	1.01
E13 [3], 12.3 nM	–	1.08
E13 [3], 37 nM	–	1.03
E13 [3], 111.1 nM	–	0.858
E13 [3], 333.3 nM	–	0.726
E13 [3], 1000 nM	–	0.615
E13 [3], 3000 nM	–	0.471
E13 [10], 4.1 nM	0.5	–
E13 [10], 12.3 nM	0.844	–
E13 [10], 37 nM	0.761	–
E13 [10], 111.1 nM	1.8	–
E13 [10], 333.3 nM	4.41	–
E13 [10], 1000 nM	4.43	–
E13 [10], 3000 nM	5.02	–
E21 [4], 4.1 nM	–	0.951
E21 [4], 12.3 nM	–	1.04
E21 [4], 37 nM	–	0.918
E21 [4], 111.1 nM	–	0.817
E21 [4], 333.3 nM	–	0.699
E21 [4], 1000 nM	–	0.649
E21 [4], 3000 nM	–	0.444
E21 [11], 4.1 nM	0.972	–
E21 [11], 12.3 nM	0.391	–
E21 [11], 37 nM	1.22	–
E21 [11], 111.1 nM	0.607	–
E21 [11], 333.3 nM	1.48	–
E21 [11], 1000 nM	2.5	–
E21 [11], 3000 nM	3.68	–
E28 [1], 4.1 nM	–	1.13
E28 [1], 12.3 nM	–	1.03
E28 [1], 37 nM	–	0.963
E28 [1], 111.1 nM	–	0.807
E28 [1], 333.3 nM	–	0.606
E28 [1], 1000 nM	–	0.42
E28 [1], 3000 nM	–	0.344
E28 [8], 4.1 nM	1.07	–
E28 [8], 12.3 nM	0.503	–
E28 [8], 37 nM	0.823	–
E28 [8], 111.1 nM	1.12	–
E28 [8], 333.3 nM	1.2	–
E28 [8], 1000 nM	2.26	–
E28 [8], 3000 nM	2.28	–
E31 [2], 4.1 nM	–	1.1
E31 [2], 12.3 nM	–	1
E31 [2], 37 nM	–	0.96
E31 [2], 111.1 nM	–	1.13
E31 [2], 333.3 nM	–	0.724
E31 [2], 1000 nM	–	0.392
E31 [2], 3000 nM	–	0.407
E31 [9], 4.1 nM	0.556	–
E31 [9], 12.3 nM	0.921	–
E31 [9], 37 nM	0.734	–
E31 [9], 111.1 nM	0.725	–
E31 [9], 333.3 nM	2.59	–
E31 [9], 1000 nM	3.28	–
E31 [9], 3000 nM	3.43	–
E34 [7], 4.1 nM	–	0.811
E34 [7], 12.3 nM	–	0.864
E34 [7], 37 nM	–	0.96
E34 [7], 111.1 nM	–	1.01
E34 [7], 333.3 nM	–	0.909
E34 [7], 1000 nM	–	0.888
E34 [7], 3000 nM	–	0.794
E34 [14], 4.1 nM	0.701	–
E34 [14], 12.3 nM	0.581	–
E34 [14], 37 nM	0.513	–
E34 [14], 111.1 nM	0.804	–
E34 [14], 333.3 nM	1	–
E34 [14], 1000 nM	1.62	–
E34 [14], 3000 nM	2.87	–
E57 [6], 4.1 nM	–	0.969
E57 [6], 12.3 nM	–	0.999
E57 [6], 37 nM	–	0.871
E57 [6], 111.1 nM	–	0.67
E57 [6], 333.3 nM	–	0.458
E57 [6], 1000 nM	–	0.372
E57 [6], 3000 nM	–	0.325
E57 [13], 4.1 nM	1.62	–
E57 [13], 12.3 nM	0.514	–
E57 [13], 37 nM	1.88	–
E57 [13], 111.1 nM	3.44	–
E57 [13], 333.3 nM	5.23	–
E57 [13], 1000 nM	6.97	–
E57 [13], 3000 nM	6.84	–
FT3469 [5], 4.1 nM	–	0.883
FT3469 [5], 12.3 nM	–	0.941
FT3469 [5], 37 nM	–	0.996
FT3469 [5], 111.1 nM	–	1
FT3469 [5], 333.3 nM	–	0.858
FT3469 [5], 1000 nM	–	0.742
FT3469 [5], 3000 nM	–	0.65
FT3469 [12], 4.1 nM	0.696	–
FT3469 [12], 12.3 nM	0.439	–
FT3469 [12], 37 nM	0.863	–
FT3469 [12], 111.1 nM	0.612	–
FT3469 [12], 333.3 nM	1.17	–
FT3469 [12], 1000 nM	1.76	–
FT3469 [12], 3000 nM	1.88	–

From the supplement of paper PMC13207355
